Results reported in patent US7648824B2, “Method of sequencing DNA” (Qiagen GmbH, priority 2000, dated 2010).
“Also recorded” adds a separate entry of the source.

How the values were obtained:
luciferase [1] = target: T1, luciferase (Photinus pyralis, UniProt P08659); test: Model system simulating PPi-based sequencing: nucleotide plus ATP added to luciferase/apyrase/substrate mixture, light signal height; assay type: biochemical; conditions: for luciferase activity (signal intensity, height of ascending curve): 50 additions of nucleotide + 2 μM ATP in 50 minutes, 100 ng luciferase, 50 mU apyrase, room temperature
T1 construct: purchased BioThema, Dalaro, Sweden
T1 sequence (P08659 whole entry): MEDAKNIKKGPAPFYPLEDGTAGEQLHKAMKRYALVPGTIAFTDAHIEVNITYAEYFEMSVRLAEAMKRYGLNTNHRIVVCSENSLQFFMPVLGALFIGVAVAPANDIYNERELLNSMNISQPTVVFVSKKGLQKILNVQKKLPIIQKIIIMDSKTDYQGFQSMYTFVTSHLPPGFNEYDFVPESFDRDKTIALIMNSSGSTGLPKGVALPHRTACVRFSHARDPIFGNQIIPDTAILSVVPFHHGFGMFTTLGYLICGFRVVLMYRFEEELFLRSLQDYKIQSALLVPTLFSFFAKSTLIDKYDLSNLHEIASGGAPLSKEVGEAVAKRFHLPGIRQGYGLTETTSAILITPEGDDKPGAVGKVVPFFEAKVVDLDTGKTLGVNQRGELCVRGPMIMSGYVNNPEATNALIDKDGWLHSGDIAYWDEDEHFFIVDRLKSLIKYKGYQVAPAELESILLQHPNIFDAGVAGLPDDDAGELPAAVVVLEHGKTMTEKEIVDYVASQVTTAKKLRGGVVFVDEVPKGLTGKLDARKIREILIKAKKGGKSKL
Experimental: (§1) In this Example a series of 5 experiments were carried out to examine the inhibitory effect of each of the 5 nucleotides (dATP, dATPαS, dCTP, dGTP and dTTP) on the enzymes apyrase and luciferase. A model system was used which simulated the effects of these enzymes in a PPi-based sequencing reaction. Each nucleotide was added to the luciferase/apyrase/substrate mixture, along with ATP (to provide a substrate for luciferase), and the effect of each nucleotide addition on the enzymes was monitored by observing the light signals generated from the luciferase reaction.
(§2) The reactions were performed at room temperature in a volume of 50 μl on an automated prototype Pyrosequencer instrument (kindly supplied by Pyrosequencing AB, Uppsala, Sweden). The reaction mixture contained: 50 mU apyrase (Sigma Chemical Co., USA), 100 ng purified luciferase (BioThema, Dalaro, Sweden), 0.1 M Tris-acetate (pH 7.75), 0.5 mM EDTA, 5 mM magnesium acetate, 0.1% bovine serum albumin, 1 mM dithiothreitol, 0.4 mg/ml polyvinylpyrrolidone (360 000), and 100 μg/ml D-luciferin (BioThema). An ATP concentration of 2 μM was added to different nucleotides (dATP, dATPαS, dCTP, dGTP and dTTP), as shown in FIGS. 1 to 5 to follow the activity of luciferase and apyrase. For investigation of the effect of Shrimp Alkaline Phosphatase (Amersham Pharmacia Biotech, Uppsala, Sweden), two units of this enzyme were added to the reaction mixture—see further below. In total, 50 additions of nucleotide and ATP mixture were performed in 50 minutes. The output of light resulting from nucleotide incorporation was detected by a CCD-camera. The data was obtained in Excel format.

apyrase [2] = target: T2, apyrase (Solanum tuberosum, UniProt P80595); test: Model system simulating PPi-based sequencing: nucleotide plus ATP added to luciferase/apyrase/substrate mixture, slope of descending curve / signal width; assay type: biochemical; conditions: for apyrase activity (slope of descending curve, signal width): 50 additions of nucleotide + 2 μM ATP in 50 minutes, 100 ng luciferase, 50 mU apyrase, room temperature
T2 construct: purchased Sigma Chemical Co., USA
T2 sequence (P80595 1-454): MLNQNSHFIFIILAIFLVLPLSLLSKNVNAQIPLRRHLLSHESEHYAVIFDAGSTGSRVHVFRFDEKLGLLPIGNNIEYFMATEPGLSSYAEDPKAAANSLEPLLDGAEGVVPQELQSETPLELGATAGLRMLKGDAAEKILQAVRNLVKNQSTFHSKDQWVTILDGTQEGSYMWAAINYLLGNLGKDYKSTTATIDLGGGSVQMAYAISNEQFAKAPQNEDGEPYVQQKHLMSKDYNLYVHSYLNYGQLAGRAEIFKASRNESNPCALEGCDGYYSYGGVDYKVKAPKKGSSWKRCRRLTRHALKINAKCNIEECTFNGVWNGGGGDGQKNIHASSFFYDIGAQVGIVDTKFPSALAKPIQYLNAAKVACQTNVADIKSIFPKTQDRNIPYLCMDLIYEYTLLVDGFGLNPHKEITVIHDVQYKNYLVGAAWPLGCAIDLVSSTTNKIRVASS
Experimental: as §1, §2

[3] = system: Enzyme mix (DNA polymerase, ATP-sulphurylase, apyrase and luciferase); test: Preincubation of Pyrosequencing reaction mixture with nucleotide, then PPi-based sequencing with ELIDA detection; assay type: biochemical; conditions: for effect of preincubation on the sequencing reaction: similar experiment, nucleotides from prototype PSQ 96 SNP Reagent kit, 2 pmol template, control 1×TE, results not shown; for inhibition of the sequencing reaction: preincubation with 5, 10 or 20 μl nucleotide for 10 minutes at room temperature without template, compared with 0 μl
Experimental: (§3) In this example, the inhibitory effect of dATPαS on a PPi-based sequencing reaction with ELIDA detection (known as Pyrosequencing) was investigated by preincubating the reaction mixture in the absence of template with varying amounts of the normal (i.e. racemic) dATPαS (containing both Rp and Sp isomers), or the pure Sp isomer of dATPαS. After preincubation, template was added and a normal “Pyrosequencing™”, reaction was carried out.
(§4) The “normal” dATPαS was taken from the PSQ 96 SNP Reagent kit supplied by Pyrosequencing AB (Uppsala, SE). The pure Rp and Sp isomers were purchased from Biolog Life Science (Bremen, Germany). The reaction mixture also included Enzyme mix (DNA polymerase, ATP-sulphurylase, apyrase and luciferase) and Substrate mix (luciferin and APS), from the PSQ 96 SNP Reagent kit supplied by Pyrosequencing AB. The template was an oligonucleotide (interactiva, Ulm, Germany) from which the following sequence could be read after annealing of a sequencing primer: […].
The pure isomer samples were diluted to the same concentration as the dATPαS in the PSQ 96 SNP Reagent kit. For preincubation, 0, 5, 10 or 20 μl of each A-sample (normal dATPαS or the Rp or Sp isomer) was added to a mixture containing 5 μl Enzyme mix, 5 μl Substrate mix in a total volume of 45 μl. The reaction was carried out in the 96 well plate delivered with the PSQ 96 SNP Reagent kit. The reaction was incubated at room temperature, in the dark for 10 minutes. After this, […] in 5 μl annealed oligonucleotide template was added to each well and the plate was transferred […] the PSQ 96 instrument, where a normal “Pyrosequencing™” reaction was carried out (omitting addition of Enzyme and Substrate mixes).
A similar experiment was also performed where the preincubation was carried out comparing “normal” dATPαS with dCTP, dGTP or dTTP, all from a prototype to the PSQ 96 SNP Reagent kit. As control, only 1×TE (dilution buffer for the dNTPs) was added. The template was the same as above, but 2 pmol were added to each well.

apyrase [4] = target: T2, apyrase; test: Preincubation of Pyrosequencing reaction mixture with nucleotide, signal width; assay type: biochemical; conditions: preincubation with 5, 10 or 20 μl nucleotide for 10 minutes, compared with 0 μl
Experimental: as §3, §4
(§5) The pure isomer samples were diluted to the same concentration as the dATPαS in the PSQ 96 SNP Reagent kit. For preincubation, 0, 5, 10 or 20 μl of each A-sample (normal dATPαS or the Rp or Sp isomer) was added to a mixture containing 5 μl Enzyme mix, 5 μl Substrate mix in a total volume of 45 μl. The reaction was carried out in the 96 well plate delivered with the PSQ 96 SNP Reagent kit. […]

luciferase [5] = target: T1, luciferase; test: Preincubation of Pyrosequencing reaction mixture with nucleotide, signal intensity; assay type: biochemical; conditions: preincubation with 5, 10 or 20 μl nucleotide for 10 minutes, compared with 0 μl
Experimental: as §3, §4, §5

luciferase [6] = target: T1, luciferase; conditions: literature report, Ford et al., 1998; cited from earlier work
[7] = 0.7 mM dATPαS + 2 μM ATP, 50 cycles, 2 U alkaline phosphatase added

SMILES | luciferase activity (signal intensity, height of ascending curve) (luciferase [1]) | apyrase activity (slope of descending curve, signal width) (apyrase [2]) | effect of preincubation on the sequencing reaction [3] | inhibition of the sequencing reaction [3] | also measured
Cc1cn([C@H]2C[C@H](O)[C@@H](COP(=O)(O)OP(=O)(O)OP(=O)(O)O)O2)c(=O)[nH]c1=O [dTTP, deoxythymidine triphosphate] | do not inhibit luciferase or apyrase | do not inhibit luciferase or apyrase | no negative effect |  | 
Nc1ncnc2c1ncn2[C@H]1C[C@H](O)[C@@H](COP(=O)(O)OP(=O)(O)OP(=O)(O)O)O1 [dATP, deoxyadenosine triphosphate] | relatively linear decrease in signal intensity |  |  |  | 
Nc1ncnc2c1ncn2[C@H]1C[C@H](O)[C@@H](COP(O)(=S)OP(=O)(O)OP(=O)(O)O)O1 (single isomer, unassigned) [Sp isomer] |  |  |  | significantly reduced | 
Nc1nc2c(ncn2[C@H]2C[C@H](O)[C@@H](COP(=O)(O)OP(=O)(O)OP(=O)(O)O)O2)c(=O)[nH]1 [dGTP, deoxyguanosine triphosphate] | do not inhibit luciferase or apyrase | do not inhibit luciferase or apyrase | no negative effect |  | 
Nc1ncnc2c1ncn2[C@H]1C[C@H](O)[C@@H](COP(O)(=S)OP(=O)(O)OP(=O)(O)O)O1 (stereo partly drawn) [dATPαS, deoxyadenosine α-thiotriphosphate] | relatively linear decrease in signal intensity | drastically inhibited in later cycles | severe negative effect | progressively severe inhibition | luciferase activity (signal intensity) in the presence of alkaline phosphatase (luciferase [1]; [7]): no inhibition of luciferase; decrease in signal intensity after 50 cycles, less than that obtained with dATP (luciferase [1]; 0.7 mM nucleotide + 2 μM ATP, after 50 cycles, compared with dATP (FIG. 1)): 50%; apyrase activity (signal width) in the presence of alkaline phosphatase (apyrase [2]; [7]): lack of apyrase inhibition; apyrase inhibition (signal width, signal definition) (apyrase [4]): apyrase inhibition is particularly occurring; luciferase inhibition (signal intensity, peak height) (luciferase [5]): Some loss of signal intensity
Nc1ccn([C@H]2C[C@H](O)[C@@H](COP(=O)(O)OP(=O)(O)OP(=O)(O)O)O2)c(=O)n1 [dCTP, deoxycytidine triphosphate] | do not inhibit luciferase or apyrase | do not inhibit luciferase or apyrase | no negative effect |  | 
Nc1ncnc2c1ncn2[C@H]1C[C@H](O)[C@@H](COP(=O)(O)O)O1 [dAMP] |  |  |  |  | inhibition of luciferase (luciferase [6]): inhibits luciferase
Nc1ncnc2c1ncn2[C@H]1C[C@H](O)[C@@H](COP(O)(=S)OP(=O)(O)OP(=O)(O)O)O1 (single isomer, unassigned) [Rp isomer] |  |  |  | Even more pronounced inhibition; also recorded: severe effect on all enzymes involved in the ELIDA detection | apyrase inhibition (signal width, signal definition) (apyrase [4]): increased signal width; luciferase inhibition (signal intensity, peak height) (luciferase [5]): signal intensity is decreased
